These results are taken from patent US11999727B2 (Tango Therapeutics, Inc., priority 2020, dated 2024).

The subject of assay [1] is HAP1 MTAP-intact cell line. The assay can be described thus: SDMA in-cell western assay, HAP1 MTAP-intact. It is filed as cell-based. Particulars: Homo sapiens. An excerpt:
(§1) Table 1 also indicates IC50 values in an MTAP-isogenic cell line pair for exemplary compounds in an SDMA in-cell western assay (columns 7-8). HAP1 MTAP-intact is a cell line in which endogenous levels of MTAP are expressed, and HAP1 MTAP-deleted is an MTAP-null cell line.

The test system of assay [2] is HAP1 MTAP-deleted cell line. Put plainly: SDMA in-cell western assay, HAP1 MTAP-deleted. The following applies: for IC50: Homo sapiens; for MTAP intact/deleted ratio: IC50 ratio HAP1 MTAP-intact / HAP1 MTAP-deleted, SDMA in-cell western. It is filed as cell-based.
Excerpt: as §1

Assay [3] concerns HAP1 MTAP-deleted cell line. Put plainly: Viability assay, MTAP-deleted cell line. It is filed as cell-based. Particulars: Homo sapiens. An excerpt: Table 1 additionally indicates IC50 values in a viability assay for the MTAP-deleted cell line (column 10), indicating the effect of treatment with compound on cell survival.
Assay [4] addresses T1, PRMT5 (Homo sapiens, UniProt O14744).
T1 construct: purchased Viva (custom protein)
The assay can be described thus: PRMT5 biochemical IC50 assay with SAM as cofactor. Particulars: PRMT5, SAM as cofactor; read-out: SAM IC50.

Assay [5] addresses T1, PRMT5. Put plainly: PRMT5 biochemical IC50 assay with no cofactor. The following applies: PRMT5, no cofactor. An excerpt: Table 1 indicates IC50 values (μM) against PRMT5 for exemplary compounds in the presence of SAM as cofactor, with no cofactor, and with MTA as cofactor, respectively (columns 4-6). […] Ki values can be calculated from the IC50 values as described in the Examples section. As detailed in the Examples section, for the assay performed in the presence of SAM, IC50=Ki×1.5 (Ki=IC50/1.5).

For assay [6], the target named is T1, PRMT5. The assay can be described thus: PRMT5 biochemical IC50 assay with MTA as cofactor. The following applies: PRMT5, MTA as cofactor; read-out: MTA IC50.
Where [7] appears, read: HAP1, read-out: MTAP HAP1 intact IC50.
Where [8] appears, read: HAP1, read-out: HAP1 MTAP deleted IC50.
Where [9] appears, read: HAP1, read-out: HAP1 MTAP deleted viability.
The mark [10] stands for this setting: HAP1, SDMA in-cell western, HAP1 MTAP-deleted, read-out: HAP 1 MTAP deleted IC50.
[11] abbreviates: HAP1, viability assay, MTAP-deleted cell line, read-out: HAP1 MTAP deleted viability.

Structures can show the parent of a compound that is named as a salt. Where two headings read alike, the source gives them in different places. Where only a bound is given, the exact number is not on record here.

T1 sequence (O14744 whole entry): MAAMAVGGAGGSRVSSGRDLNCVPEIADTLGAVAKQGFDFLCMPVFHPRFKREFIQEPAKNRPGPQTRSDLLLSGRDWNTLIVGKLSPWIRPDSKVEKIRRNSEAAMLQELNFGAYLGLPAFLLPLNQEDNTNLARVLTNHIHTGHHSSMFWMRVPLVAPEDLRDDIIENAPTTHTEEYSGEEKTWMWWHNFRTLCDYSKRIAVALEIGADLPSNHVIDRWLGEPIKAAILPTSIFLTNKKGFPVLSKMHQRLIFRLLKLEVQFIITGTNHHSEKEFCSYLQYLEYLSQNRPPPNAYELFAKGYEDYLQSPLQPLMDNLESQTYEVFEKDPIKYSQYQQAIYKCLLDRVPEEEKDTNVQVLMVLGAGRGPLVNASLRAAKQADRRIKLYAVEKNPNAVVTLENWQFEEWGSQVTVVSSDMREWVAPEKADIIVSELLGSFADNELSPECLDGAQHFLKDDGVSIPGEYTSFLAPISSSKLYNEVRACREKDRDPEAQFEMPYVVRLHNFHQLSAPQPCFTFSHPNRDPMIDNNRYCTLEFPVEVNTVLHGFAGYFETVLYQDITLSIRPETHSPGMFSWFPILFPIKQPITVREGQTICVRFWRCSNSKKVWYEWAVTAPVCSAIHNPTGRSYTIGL
T1 sequence (Q9BQA1 whole entry partner): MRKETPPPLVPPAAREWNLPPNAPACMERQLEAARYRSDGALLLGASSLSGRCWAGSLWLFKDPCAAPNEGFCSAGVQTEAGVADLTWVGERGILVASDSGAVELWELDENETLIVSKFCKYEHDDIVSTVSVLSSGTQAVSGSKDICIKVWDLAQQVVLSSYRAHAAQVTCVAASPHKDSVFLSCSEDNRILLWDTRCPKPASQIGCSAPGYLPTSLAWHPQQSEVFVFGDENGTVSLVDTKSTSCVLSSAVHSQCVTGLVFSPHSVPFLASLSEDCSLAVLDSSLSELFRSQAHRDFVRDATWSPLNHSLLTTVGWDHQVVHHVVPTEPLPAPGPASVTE

As to `Cc1cc(NC(=O)C(=O)N2CC(C)CCC2c2ccccc2)cnc1N` (mixture of isomers) [Compound 27, N-(6-Amino-5-methyl-3-pyridyl)-2-(5-methyl-2-phenyl-1-piperidyl)-2-oxo-acetamide], the IC50 in assay [1] (setting [7]) was over 1000 nM; in assay [2] (setting [8]), under 100 nM; in assay [3] (setting [9]), 1000 to 10000 nM.

Take `Cc1cncc(NC(=O)C(=O)N2[C@H](c3ccccc3)CC[C@@H](C)[C@@H]2C)c1` (racemic) [Compound 23, rac-2-[(2S,3R,6S)-2,3-dimethyl-6-phenyl-1-piperidyl]-N-(5-methyl-3-pyridyl)-2-oxo-acetamide]: the figures for the IC50 in assay [1] (setting [7]), in assay [2] (setting [8]) and in assay [3] (setting [9]) were over 1000 nM, over 1000 nM and over 10000 nM, respectively.

As for `Cc1cc(NC(=O)C(=O)N2C[C@H](C)CC[C@H]2c2ccc(O)cc2)cnc1N` (racemic) [Compound 164, rac-N-(6-amino-5-methylpyridin-3-yl)-2-((2R,5S)-2-(4-hydroxyphenyl)-5-methylpiperidin-1-yl)-2-oxoacetamide], the IC50 was 100 to 1000 nM in assay [1] (setting [7]), under 100 nM in assay [2] (setting [8]) and under 1000 nM in assay [3] (setting [9]).

On to `Cc1cc(NC(=O)C(=O)N2C[C@H](C)CC[C@H]2c2ccc3c(c2)CC(=O)N3)cnc1N` (racemic) [Compound 373, N-(6-amino-5-methyl-3-pyridyl)-2-[5-methyl-2-(2-oxoindolin-5-yl)-1-piperidyl]-2-oxo-acetamide], for which the figures for the IC50 in assay [1] (setting [7]), in assay [2] (setting [8]) and in assay [3] (setting [9]) were 100 to 1000 nM, under 100 nM and under 1000 nM, respectively.

As for `Cc1cc(NC(=O)C(=O)N2C[C@H](C)CC[C@@H]2c2ccc(-c3ccn[nH]3)s2)cnc1N` (racemic) [Compound 577, N-(6-amino-5-methyl-3-pyridyl)-2-[(2R,5R)-5-methyl-2-[5-(1H-pyrazol-5-yl)-2-thienyl]-1-piperidyl]-2-oxo-acetamide], the IC50 in assay [1] (HAP1, SDMA in-cell western, HAP1 MTAP-intact, read-out: MTAP HAP1 intact IC50) is over 1000 nM; in assay [2] (setting [10]), over 1000 nM. In addition, the MTAP intact/deleted ratio result in assay [2] is listed as “B (an IC50 ratio greater than or equal to 3 fold but lower than 10 fold)”.

As to `Cc1cc(NC(=O)C(=O)N2C[C@H](C)CC[C@@H]2c2ccc3c(c2)CCC(=O)N3)cnc1N` (racemic) [Compound 583, N-(6-Amino-5-methyl-3-pyridyl)-2-[(2R,5R)-5-methyl-2-(2-oxo-3,4-dihydro-1H-quinolin-6-yl)-1-piperidyl]-2-oxo-acetamide], the values for the IC50 in assay [1] (setting [7]), in assay [2] (setting [8]) and in assay [3] (setting [9]) were under 100 nM, under 100 nM and under 1000 nM, respectively.

Consider `Cc1cc(NC(=O)C(=O)N2C[C@H](C)CC[C@H]2c2ccc3cnccc3c2)cnc1N` (racemic) [Compound 758, N-(6-Amino-5-methyl-3-pyridyl)-2-[2-(6-isoquinolyl)-5-methyl-1-piperidyl]-2-oxo-acetamide], for which the IC50 in assay [1] (setting [7]) is 100 to 1000 nM; in assay [2] (setting [8]), under 100 nM; in assay [3] (setting [9]) it was under 1000 nM.

`[2H][C@]1(c2ccc(F)cc2)CC[C@H](C)CN1C(=O)C(=O)Nc1cnc(N)c(C)c1` (racemic) [Compound 1009, N-(6-amino-5-methylpyridin-3-yl)-2-(2-(4-fluorophenyl)-5-methylpiperidin-1-yl-2-d)-2-oxoacetamide hydrochloride]: the IC50 in assay [1] (setting [7]) was 100 to 1000 nM; in assay [2] (setting [8]) it was under 100 nM; in assay [3] (setting [9]) it was 1000 to 10000 nM.

With `Cc1cc(NC(=O)C(=O)N2C[C@H](C)CC[C@H]2c2ccc3sc(CN(C)C)nc3c2)cnc1N` (racemic) [Compound 1106, N-(6-amino-5-methylpyridin-3-yl)-2-(2-(2-((dimethylamino)methyl)benzo[d]thiazol-5-yl)-5-methylpiperidin-1-yl)-2-oxoacetamide], the IC50 in assay [1] (setting [7]) was under 100 nM; in assay [2] (setting [8]), under 100 nM; in assay [3] (setting [9]), under 1000 nM.

As to `C[C@@H]1CC[C@H](c2ccccc2)N(C(=O)C(=O)Nc2cncc(C(N)=O)c2)C1` (single isomer, unassigned) [Compound 75], the IC50 in assay [1] (setting [7]) and in assay [2] (setting [8]) was over 1000 nM each time.

For the compound `C[C@@H]1CC[C@@H](c2ccc3c(c2)CC(=O)N3)N(C(=O)C(=O)Nc2cncc(C(N)=O)c2)C1` (single isomer, unassigned) [Compound 325], the IC50 in assay [1] (setting [7]) and in assay [2] (setting [8]) was over 1000 nM in each case.

For the compound `Cc1cc(NC(=O)C(=O)N2C[C@@H](C)CC[C@@H]2c2ccncc2)cnc1N` (single isomer, unassigned) [Compound 609], the IC50 in assay [4] was over 500 nM; in assay [5] (read-out: No Cofactor/rel IC50) it was over 500 nM; in assay [6], over 500 nM; in assay [2] (setting [10]) it was over 1000 nM; in assay [3] (HAP1, viability IC50, MTAP-deleted cell line, read-out: HAP1 MTAP deleted viability), over 10000 nM. Also, the MTAP intact/deleted ratio entry in assay [2] is “C (an IC50 ratio of less than 3 fold)”.

Turning to `Cc1cc(NC(=O)C(=O)N2C[C@@H](C)C(F)(F)C[C@@H]2c2cccc3[nH]ncc23)cnc1N` (single isomer, unassigned) [Compound 1034], the IC50 in assay [4] is over 500 nM; in assay [5] (read-out: No Cofactor/rel IC50) it was over 500 nM; in assay [6], over 500 nM; in assay [3] (setting [11]), over 10000 nM.

In the case of `Cc1cc(NC(=O)C(=O)N2C[C@H](C)CC[C@H]2c2cccc3[nH]ccc23)cnc1N` (single isomer, unassigned) [Compound 1035], the IC50 in assay [4] is 50 to 500 nM; in assay [5] (read-out: No Cofactor/rel IC50) it was 50 to 500 nM; in assay [6], under 50 nM; in assay [3] (setting [11]) it was under 1000 nM.

Take `Cc1cc(NC(=O)C(=O)N2C[C@@H](C)CC[C@@H]2c2cccc3[nH]ccc23)cnc1N` (single isomer, unassigned) [Compound 1038]: the IC50 is over 500 nM in assay [4], over 500 nM in assay [5] (read-out: No Cofactor/rel IC50), over 500 nM in assay [6] and over 10000 nM in assay [3] (setting [11]).

On to `Cc1cc(NC(=O)C(=O)N2C[C@H](C)C(F)(F)C[C@H]2c2cccc3[nH]ncc23)cnc1N` (single isomer, unassigned) [Compound 1041], for which the IC50 was 50 to 500 nM in assay [4], under 50 nM in assay [5] (read-out: No Cofactor/rel IC50), under 50 nM in assay [6] and under 1000 nM in assay [3] (setting [11]).

`C[C@H]1CC[C@H](c2ccc(NCC(=O)N(C)C)cc2)N(C(=O)C(=O)Nc2cncc(C(N)=O)c2)C1` (single isomer, unassigned) [Compound 1082]: the IC50 in assay [4] is over 500 nM; in assay [5] (read-out: No Cofactor/rel IC50) it was over 500 nM; in assay [6], over 500 nM; in assay [3] (setting [11]) it was over 10000 nM.

`C[C@@H]1CC[C@@H](c2cccc(Cl)c2)N(C(=O)C(=O)Nc2cnc(N)c(C3CC3)c2)C1` (single isomer, unassigned) [Compound 1169]: the IC50 is over 500 nM in assay [4], over 500 nM in assay [5] (read-out: No Cofactor/rel IC50), 50 to 500 nM in assay [6] and over 10000 nM in assay [3] (setting [11]).

On to `COc1ncc(NC(=O)C(=O)N2C[C@H](C)CC[C@H]2c2ccc3sc(CCN(C)C)nc3c2)cc1C(N)=O` (single isomer, unassigned) [Compound 1197], for which the IC50 in assay [4] is over 500 nM; in assay [5] (read-out: No Cofactor/rel IC50) it was over 500 nM; in assay [6], over 500 nM; in assay [3] (setting [11]), 1000 to 10000 nM.

Consider `Cc1cncc(NC(=O)C(=O)N2CC(C)CCC2c2ccccc2)c1` (stereo not shown) [Compound 1, 2-(5-methyl-2-phenylpiperidin-1-yl)-N-(5-methylpyridin-3-yl)-2-oxoacetamide], for which the IC50 in assay [1] (setting [7]) and in assay [2] (setting [8]) was over 1000 nM in each case.

In the case of `NC(=O)c1cncc(NC(=O)C(=O)N2CCCCC2C2CCCC2O)c1` (stereo not shown) [Compound 169, 5-{2-[2-(2-Hydroxycyclopentyl)piperidin-1-yl]-2-oxoacetamido}pyridine-3-carboxamide], the IC50 was 50 to 500 nM in assay [4], over 500 nM in assay [5] (read-out: No Cofactor/ rel IC50), 50 to 500 nM in assay [6] and over 10000 nM in assay [3] (setting [11]).

In the case of `NC(=O)c1cncc(NC(=O)C(=O)N2CCC3C(CCCN3Cc3ccccc3)C2)c1` (stereo not shown) [Compound 412, 5-[2-(1-Benzyl-decahydro-1,6-naphthyridin-6-yl)-2-oxoacetamido]pyridine-3-carboxamide], the IC50 in assay [4] is 50 to 500 nM; in assay [5] (read-out: No Cofactor/rel IC50), over 500 nM; in assay [6], 50 to 500 nM; in assay [3] (setting [11]), over 10000 nM.

Consider `NC(=O)CC1CCC2CN(C(=O)C(=O)Nc3cncc(C(N)=O)c3)CCC2C1` (stereo not shown) [Compound 420, 5-{2-[6-(Carbamoylmethyl)-decahydroisoquinolin-2-yl]-2-oxoacetamido}pyridine-3-carboxamide], for which the IC50 was over 500 nM in assay [4], over 500 nM in assay [5] (read-out: No Cofactor/rel IC50), 50 to 500 nM in assay [6] and over 10000 nM in assay [3] (setting [11]).
